The results in this text go back to ChEMBL document CHEMBL4014314, “Rational Design of Bisubstrate-Type Analogues as Inhibitors of DNA Methyltransferases in Cancer Cells” (J Med Chem, 2017).

Test [1] concerns the target T1, DNA (cytosine-5)-methyltransferase 3A (Homo sapiens, UniProt Q9Y6K1). Kind of test: Inhibition of human DNMT3A catalytic domain using AdoMet assessed as reduction of methylation in 5'-biotin/3' 6-carboxyfluorescein labeled DNA duplex at CpG site at 32 uM after 1 hr by fluorescence assay relative to control.
Test [2] deals with T1, DNA (cytosine-5)-methyltransferase 3A. Put plainly: Inhibition of human DNMT3A catalytic domain using AdoMet assessed as reduction of methylation in 5'-biotin/3' 6-carboxyfluorescein labeled DNA duplex at CpG site at 10 uM after 1 hr by fluorescence assay relative to control.
The target of test [3] is T2, DNA (cytosine-5)-methyltransferase 1 (Homo sapiens, UniProt P26358). Kind of test: Inhibition of full length His-tagged human DNMT1 using SAM/[methyl-3H]SAM assessed as reduction of methylation in biotinylated hemimethylated DNA duplex at 100 uM after 1 hr by scintillation counting method relative to control.
Test [4] deals with T2, DNA (cytosine-5)-methyltransferase 1. Put plainly: Inhibition of full length His-tagged human DNMT1 using SAM/[methyl-3H]SAM assessed as reduction of methylation in biotinylated hemimethylated DNA duplex at 32 uM after 1 hr by scintillation counting method relative to control.

T1 sequence (Q9Y6K1 whole entry, looked up, the tested form may be a part): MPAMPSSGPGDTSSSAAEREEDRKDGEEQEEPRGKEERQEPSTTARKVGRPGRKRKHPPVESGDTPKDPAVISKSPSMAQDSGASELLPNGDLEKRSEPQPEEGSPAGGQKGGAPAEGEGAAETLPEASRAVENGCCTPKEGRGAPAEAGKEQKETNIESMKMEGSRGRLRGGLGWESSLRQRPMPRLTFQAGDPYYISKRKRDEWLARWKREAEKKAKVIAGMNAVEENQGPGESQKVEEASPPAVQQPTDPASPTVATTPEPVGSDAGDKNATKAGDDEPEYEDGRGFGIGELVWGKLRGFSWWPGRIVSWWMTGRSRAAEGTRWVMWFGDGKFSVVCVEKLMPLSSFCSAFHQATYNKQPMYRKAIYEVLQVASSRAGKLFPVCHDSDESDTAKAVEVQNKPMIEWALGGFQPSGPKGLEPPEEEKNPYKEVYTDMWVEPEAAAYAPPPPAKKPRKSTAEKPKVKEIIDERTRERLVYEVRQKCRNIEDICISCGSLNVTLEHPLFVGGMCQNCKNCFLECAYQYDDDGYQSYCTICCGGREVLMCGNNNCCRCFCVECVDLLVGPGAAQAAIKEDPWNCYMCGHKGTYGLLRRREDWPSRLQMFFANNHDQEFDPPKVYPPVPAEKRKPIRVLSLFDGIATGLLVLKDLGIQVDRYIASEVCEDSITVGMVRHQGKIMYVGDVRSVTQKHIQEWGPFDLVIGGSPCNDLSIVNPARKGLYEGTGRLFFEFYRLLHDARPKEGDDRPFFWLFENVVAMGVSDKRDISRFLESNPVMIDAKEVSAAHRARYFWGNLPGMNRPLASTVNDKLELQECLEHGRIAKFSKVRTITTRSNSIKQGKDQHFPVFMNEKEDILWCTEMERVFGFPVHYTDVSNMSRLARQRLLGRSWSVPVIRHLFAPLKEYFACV
T2 sequence (P26358 whole entry): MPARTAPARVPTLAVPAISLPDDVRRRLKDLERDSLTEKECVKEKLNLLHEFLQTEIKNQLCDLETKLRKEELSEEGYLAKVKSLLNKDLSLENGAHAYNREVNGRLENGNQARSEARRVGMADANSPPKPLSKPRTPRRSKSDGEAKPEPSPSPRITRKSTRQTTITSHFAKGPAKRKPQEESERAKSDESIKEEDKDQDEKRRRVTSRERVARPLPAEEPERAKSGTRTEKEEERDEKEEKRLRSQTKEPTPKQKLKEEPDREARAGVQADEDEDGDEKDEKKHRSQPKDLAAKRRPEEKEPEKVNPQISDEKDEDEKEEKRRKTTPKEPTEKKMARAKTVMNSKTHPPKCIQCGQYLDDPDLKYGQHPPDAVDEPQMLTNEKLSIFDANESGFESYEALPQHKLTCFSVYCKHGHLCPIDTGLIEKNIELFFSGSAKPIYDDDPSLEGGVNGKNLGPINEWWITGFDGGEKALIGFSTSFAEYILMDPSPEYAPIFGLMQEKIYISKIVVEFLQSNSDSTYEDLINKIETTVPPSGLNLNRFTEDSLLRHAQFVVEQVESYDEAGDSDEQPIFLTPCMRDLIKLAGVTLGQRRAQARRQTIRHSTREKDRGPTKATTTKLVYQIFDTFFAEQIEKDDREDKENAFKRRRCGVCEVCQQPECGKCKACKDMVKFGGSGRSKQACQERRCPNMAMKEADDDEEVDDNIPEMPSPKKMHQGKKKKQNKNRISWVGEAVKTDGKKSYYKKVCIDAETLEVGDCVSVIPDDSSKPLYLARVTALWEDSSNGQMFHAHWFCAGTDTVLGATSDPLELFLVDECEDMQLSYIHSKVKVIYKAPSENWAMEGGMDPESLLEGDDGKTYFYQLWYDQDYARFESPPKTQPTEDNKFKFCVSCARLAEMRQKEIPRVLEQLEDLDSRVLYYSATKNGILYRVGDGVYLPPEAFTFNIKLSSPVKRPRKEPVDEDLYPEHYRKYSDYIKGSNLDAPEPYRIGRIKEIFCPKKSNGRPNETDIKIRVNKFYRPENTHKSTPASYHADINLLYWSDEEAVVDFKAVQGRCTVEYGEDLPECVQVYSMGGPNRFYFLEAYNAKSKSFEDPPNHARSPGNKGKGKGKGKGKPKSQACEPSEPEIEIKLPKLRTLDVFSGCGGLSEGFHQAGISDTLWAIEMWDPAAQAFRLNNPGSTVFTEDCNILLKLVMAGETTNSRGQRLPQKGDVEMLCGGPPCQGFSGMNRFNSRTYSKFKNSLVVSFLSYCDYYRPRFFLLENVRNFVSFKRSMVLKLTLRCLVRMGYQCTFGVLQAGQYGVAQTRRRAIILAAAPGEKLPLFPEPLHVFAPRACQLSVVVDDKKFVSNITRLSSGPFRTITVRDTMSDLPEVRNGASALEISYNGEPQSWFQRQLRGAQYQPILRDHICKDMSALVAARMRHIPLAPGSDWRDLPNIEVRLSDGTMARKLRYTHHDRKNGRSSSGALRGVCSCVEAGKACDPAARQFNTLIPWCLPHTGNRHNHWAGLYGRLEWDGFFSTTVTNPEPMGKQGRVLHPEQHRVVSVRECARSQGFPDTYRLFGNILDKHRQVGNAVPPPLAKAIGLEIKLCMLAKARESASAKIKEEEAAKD

Take `c1ccc(CCCNc2ncnc3cc(OCC4CCN(CCNc5ccncc5)CC4)ccc23)cc1`: the inhibition (in general, the drop in the measured response relative to a control, in per cent) turned out to be 72% in test [1], 47% in test [2] and 34% in test [3].

Consider `FC(F)(F)c1ccc2c(NCCN3CCC(COc4ccc5c(NCCCc6ccccc6)ncnc5c4)CC3)ccnc2c1`, for which the inhibition in test [1] was determined as 0%; in test [2], 0%; in test [4] it was 0%; in test [3], 48%.

As to `c1ccc(CN2CCC(Nc3ncnc4cc(OCC5CCN(CCNc6ccnc7ccccc67)CC5)ccc34)CC2)cc1`, the inhibition in test [1] was 93%; in test [2] it was 72%; in test [4] it was 65%; in test [3], 81%.

As for `Fc1ccc2nccc(NCCN3CCC(COc4ccc5c(NCCCc6ccccc6)ncnc5c4)CC3)c2c1`, the inhibition in test [1] was determined as 82%; in test [2], 0%; in test [4], 0%; in test [3], 79%.

In the case of `Clc1ccccc1CCNc1ncnc2cc(OCC3CCN(CCNc4ccnc5ccccc45)CC3)ccc12`, the inhibition came to 100% in test [1], 10% in test [2], 42% in test [4] and 97% in test [3].

On to `c1ccc(CCCNc2ncnc3cc(OCC4CCN(CCNc5cccc6cnccc56)CC4)ccc23)cc1`, for which the inhibition in test [1], in test [2], in test [4] and in test [3] was 0% each time.

On to `Cc1cc(NCCN2CCC(COc3ccc4c(NCCCc5ccccc5)ncnc4c3)CC2)ccn1`, for which the inhibition in test [1] was 58%; in test [2], 26%; in test [4], 13%; in test [3], 55%.

Regarding `CN(C)c1ccc(NCCN2CCC(COc3ccc4c(NCCCc5ccccc5)ncnc4c3)CC2)c2ccccc12`, the inhibition in test [1] was 77%; in test [2], 66%; in test [4], 8%; in test [3], 15%.

With `Oc1cc2nccc(NCCN3CCC(COc4ccc5c(NCCCc6ccccc6)ncnc5c4)CC3)c2cc1O`, the inhibition in test [1] turned out to be 93%; in test [2] it was 66%; in test [4] it was 36%; in test [3], 81%.

As for `c1ccc(CCCNc2ncnc3cc(OCC4CCN(CCNc5cncc6ccccc56)CC4)ccc23)cc1`, the inhibition in test [1] is 49%; in test [2], 35%; in test [4] it was 0%; in test [3], 0%.

As for `Nc1ccc(NCCN2CCC(COc3ccc4c(NCCCc5ccccc5)ncnc4c3)CC2)cc1`, the inhibition in test [1] is 65%; in test [2] it was 37%; in test [4], 0%; in test [3], 0%.

Regarding `COCn1ccc(NCCNCCCOc2ccc3c(NCCCc4ccccc4)ncnc3c2)nc1=O`, the inhibition in test [1], in test [2], in test [4] and in test [3] was 0% throughout.

On to `Oc1ccc2c(NCCN3CCC(COc4ccc5c(NCCCc6ccccc6)ncnc5c4)CC3)ccnc2c1`, for which the inhibition in test [1] was found to be 72%; in test [2], 74%; in test [4], 0%; in test [3], 59%.

With `c1ccc(CCCNc2ncnc3cc(OCC4CCN(CCNc5cnc6ccccc6c5)CC4)ccc23)cc1`, the inhibition in test [1] amounted to 45%; in test [2] it was 38%; in test [4], 0%; in test [3] it was 12%.

For `c1ccc(CCCNc2ncnc3cc(OCC4CCN(CCNc5ccc6ncccc6c5)CC4)ccc23)cc1`, the inhibition is 60% in test [1], 47% in test [2], 0% in test [4] and 16% in test [3].

`Cc1cc(Nc2ccc(NC(=O)c3ccc(Nc4ccnc5ccccc45)cc3)cc2)nc(N)n1`: the inhibition turned out to be 72% in test [1] and 70% in test [2].
